The record followed here is ChEMBL document CHEMBL4673236, “Synthesis and biological effect of lysosome-targeting fluorescent anion transporters with enhanced anionophoric activity” (Bioorg Med Chem Lett, 2020).

The nature of series [1]: Aniono-phoric activity in egg-yolk L-aphosphatidylcholine vesicle assessed as increase in efflux of chloride ion by pH discharge experiment.
Series [2] is described as follows: Induction of lysosome alkalization in human HeLa cells incubated for 4 hrs by acridine orange staining based confocal microscopic analysis. It is filed as subcellular. Particulars: dose 1.5-5 µM.
Series [3] is described as follows: Induction of lysosome alkalization in human HeLa cells assessed as pixel intensity ratio of red fluorescence to green fluorescence at 5 uM incubated for 4 hrs by acridine orange staining based confocal microscopic analysis relative to control. It is filed as subcellular.
Series [4] in a line: Induction of lysosome alkalization in human HeLa cells assessed as increase in lysosomal pH incubated for 4 hrs by LysoSensor Green […] staining based confocal microscopic analysis. It is filed as subcellular. Particulars: dose 1.5-5 µM.
In series [5] the test system is HeLa. In words: Induction of lysosomal alkalization in human HeLa cells assessed as reduction in Cathepsin B activity at 5 uM using MR-(RR2) as substrate preincubated for 5 hrs followed by substrate addition and measured after 1 hr by confocal microscopic analysis. The format is functional, cell-based. Particulars: time 6.0 hrs.
Series [6] can be described thus: Aniono-phoric activity in egg-yolk L-aphosphatidylcholine vesicle assessed as increase in efflux of chloride ion at 0.5 mol% by electrode technique.
Series [7] is described as follows: Drug localization in lysosome of human HeLa cells at 20 uM incubated for 6 hrs by confocal microscopic analysis. The format is ADME, subcellular.

Each structure is given as a SMILES string. Activity calls are given as the source filed them. The calls are words filed in the database; no cut-off is given here.

Regarding `Cc1cc(=O)oc2cc(Nc3c(Nc4ccc(N5CCOCC5)cc4)c(=O)c3=O)ccc12`, the EC50 entry in series [1] is “Nd(Insoluble)”. Also, the Activity entry in series [2] and in series [4] was “Dose-dependent effect” each time. The Ratio in series [3] was determined as 0.69. In addition, the result in series [5] was Active. Moreover, in series [6], the result was inactive.

As to `O=c1cc(CN2CCOCC2)c2ccc(Nc3c(Nc4cc(C(F)(F)F)cc(C(F)(F)F)c4)c(=O)c3=O)cc2o1`, the EC50 in series [1] stood at 9.09 mol%. Further, the Drug uptake entry in series [7] is given as “Active”. Further, the Activity entry in series [2] and in series [4] was “Dose-dependent effect” throughout. Also, in series [3], the Ratio turned out to be 0.08. In addition, the result in series [5] and in series [6] was Active.

On to `O=c1cc(CN2CCOCC2)c2ccc(Nc3c(Nc4ccc(C(F)(F)F)cc4)c(=O)c3=O)cc2o1`, for which the EC50 in series [1] was 0.11 mol%. For the same compound, the Drug uptake result in series [7] is recorded as “Active”. In addition, the Activity result in series [2] and in series [4] was “Dose-dependent effect” throughout. Besides, in series [3], the Ratio is given as 0.52. Also, the result in series [5] was Active. In series [6], the outcome was inactive.

Take `Cc1cc(=O)oc2cc(Nc3c(Nc4ccccc4)c(=O)c3=O)ccc12`: the EC50 entry in series [1] is reported as “Nd(Insoluble)”. For the same compound, the Drug uptake result in series [7] is listed as “Not Active”. The outcome in series [6] was inactive.
